Experiments:
[1] = molecular target: T1, JAK2 (Homo sapiens, UniProt O60674); test: JAK2 Ki determination assay (kinase tracer 236 binding); details: binding experiment, 25 nM kinase tracer 236; read-out: Ki against JAK2
T1 construct: Recombinant human JAK2 catalytic domain (amino acids 808-1132; catalog number PV4210); purchased Invitrogen PV4210
Experimental: JAK2 (Invitrogen, PV4210) was used at a final concentration of 5 nM. The binding experiment was performed in 50 mM Hepes pH 7.5, 0.01% Brij-35, 10 mM MgCl2, 1 mM EGTA using 25 nM kinase tracer 236 (Invitrogen, PV5592) and 2 nM Eu-anti-GST (Invitrogen, PV5594) with varying compound concentrations. Detection of tracer was performed according to the manufacturer's procedure.

[2] = molecular target: T2, JAK3 (Homo sapiens, UniProt P52333); test: JAK3 Ki determination assay; type: biochemical; details: Lineweaver-Burk, varying ATP, polyGT substrate; read-out: Ki against JAK3
T2 construct: purchased Carna Biosciences 09CBS-0625B
T2 sequence (P52333 1-1124): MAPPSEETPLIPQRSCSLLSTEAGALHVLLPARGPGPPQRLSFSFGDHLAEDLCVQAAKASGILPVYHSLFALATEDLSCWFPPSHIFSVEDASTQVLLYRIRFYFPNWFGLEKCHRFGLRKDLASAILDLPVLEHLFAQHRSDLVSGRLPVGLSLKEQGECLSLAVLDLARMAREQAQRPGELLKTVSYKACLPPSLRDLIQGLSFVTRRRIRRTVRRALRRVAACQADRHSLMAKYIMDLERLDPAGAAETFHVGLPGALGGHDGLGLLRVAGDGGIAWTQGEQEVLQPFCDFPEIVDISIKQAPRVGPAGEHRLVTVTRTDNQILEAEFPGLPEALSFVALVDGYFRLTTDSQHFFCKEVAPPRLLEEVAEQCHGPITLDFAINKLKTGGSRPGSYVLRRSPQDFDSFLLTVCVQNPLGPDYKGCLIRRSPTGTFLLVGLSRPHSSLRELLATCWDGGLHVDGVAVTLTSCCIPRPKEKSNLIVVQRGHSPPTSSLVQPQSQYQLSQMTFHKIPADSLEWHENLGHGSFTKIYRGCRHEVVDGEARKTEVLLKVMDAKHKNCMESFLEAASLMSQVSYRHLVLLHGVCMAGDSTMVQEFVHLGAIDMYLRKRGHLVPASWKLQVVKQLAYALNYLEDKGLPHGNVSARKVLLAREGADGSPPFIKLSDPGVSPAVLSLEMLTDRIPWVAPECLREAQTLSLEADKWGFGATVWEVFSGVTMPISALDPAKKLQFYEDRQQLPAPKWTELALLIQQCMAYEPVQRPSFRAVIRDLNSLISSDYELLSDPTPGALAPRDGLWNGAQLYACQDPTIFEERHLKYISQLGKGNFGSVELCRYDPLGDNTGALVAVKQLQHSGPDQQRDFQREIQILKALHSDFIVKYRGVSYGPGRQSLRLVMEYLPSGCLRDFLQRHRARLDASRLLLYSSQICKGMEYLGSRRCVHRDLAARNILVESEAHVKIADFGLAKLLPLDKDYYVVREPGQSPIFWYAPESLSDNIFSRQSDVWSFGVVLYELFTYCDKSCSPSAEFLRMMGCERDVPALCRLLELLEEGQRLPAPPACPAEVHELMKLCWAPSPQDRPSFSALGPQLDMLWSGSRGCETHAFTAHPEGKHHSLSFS
Experimental: For the determination of Ki, different amounts of compound were mixed with the enzyme and the enzymatic reaction was followed as a function of ATP concentration. The Ki was determined by means of double reciprocal plotting of Km vs compound concentration (Lineweaver-Burk plot). JAK3 (Carna Biosciences, 09CBS-0625B) was used at a final concentration of 10 ng/mL. The substrate was Poly(Glu,Tyr)sodium salt (4:1), MW 20 000-50 000 (Sigma, P0275) The reaction was performed in 25 mM Tris pH 7.5, 0.01% Triton X-100, 0.5 mM EGTA, 2.5 mM DTT, 0.5 mM Na3VO4, 5 mM b-glycerolphosphate, 10 mM MgCl2 with varying concentrations of ATP and compound and stopped by addition of 150 mM phosphoric acid. Measurement of incorporated phosphate into the substrate polyGT was done by loading the samples on a filter plate (using a harvester, Perkin Elmer) and subsequent washing. Incorporated ^33P in polyGT was measured in a Topcount scintillation counter after addition of scintillation liquid to the filter plates (Perkin Elmer).

T1 sequence (O60674 808-1132): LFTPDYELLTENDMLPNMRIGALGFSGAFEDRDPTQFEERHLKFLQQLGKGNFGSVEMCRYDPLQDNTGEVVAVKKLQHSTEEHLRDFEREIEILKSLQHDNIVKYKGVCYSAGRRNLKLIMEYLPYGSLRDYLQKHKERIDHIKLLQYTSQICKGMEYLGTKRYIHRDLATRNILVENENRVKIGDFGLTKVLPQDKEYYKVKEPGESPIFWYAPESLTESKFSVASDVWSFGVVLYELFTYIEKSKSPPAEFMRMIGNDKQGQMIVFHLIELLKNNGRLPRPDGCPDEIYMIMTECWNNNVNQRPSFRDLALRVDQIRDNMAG

Ki [1]: 62.6 nM
Ki [2]: 685 nM
SMILES: CCc1cc(C2CN(S(C)(=O)=O)C2)ncc1N(C)c1cc2c(cn1)ncn2C [Compound 1, [4-Ethyl-6-(1-methanesulfonyl-azetidin-3-yl)-pyridin-3-yl]-methyl-(1-methyl-1H-imidazo[4,5-d]pyridin-6-yl)-amine]

From US20140213576A1, “NOVEL COMPOUND USEFUL FOR THE TREATMENT OF DEGENERATIVE AND INFLAMMATORY DISEASES” (GALAPAGOS NV, priority 2013, published 2014)
